# System: 991263-137-R1-J2-PDC complex spheroid viability
# Assay: Anticancer human tumor 991263-137-R1-J2-PDC patient-derived colon adenocarcinoma cell line growth inhibition [POLQ]
# Details: for IC50: curve of first compound; for viability, T/C: stronger effect = lower value
# How it was run: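 Complex spheroid viability model combining PDC tumour cells with endothelial (HUVEC) and MSC stromal cells. Novobiocin, ART-558 or RP6685 were tested singly and in combination with standard and investigational anticancer drugs. Each was titrated in half-log steps from near clinical Cmax, or from 10 microM where Cmax was unknown.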
# [1] = second compound 0.0316 µM, first compound 0.0316 µM
# [2] = second compound 0.0316 µM, first compound 0.1 µM
# [3] = second compound 0.0316 µM, first compound 0.316 µM
# [4] = second compound 0.0316 µM, first compound 1 µM
# [5] = second compound 0.0316 µM, first compound 3.16 µM
# [6] = second compound 0.0316 µM, first compound 10 µM
# [7] = second compound 0.1 µM, first compound 0.0316 µM
# [8] = second compound 0.1 µM, first compound 0.1 µM
# [9] = second compound 0.1 µM, first compound 0.316 µM
# [10] = second compound 0.1 µM, first compound 1 µM
# [11] = second compound 0.1 µM, first compound 3.16 µM
# [12] = second compound 0.1 µM, first compound 10 µM
# [13] = second compound 0.316 µM, first compound 0.0316 µM
# [14] = second compound 0.316 µM, first compound 0.1 µM
# [15] = second compound 0.316 µM, first compound 0.316 µM
# [16] = second compound 0.316 µM, first compound 1 µM
# [17] = second compound 0.316 µM, first compound 3.16 µM
# [18] = second compound 0.316 µM, first compound 10 µM
# [19] = second compound 1 µM, first compound 0.0316 µM
# [20] = second compound 1 µM, first compound 0.1 µM
# [21] = second compound 1 µM, first compound 0.316 µM
# [22] = second compound 1 µM, first compound 1 µM
# [23] = second compound 1 µM, first compound 3.16 µM
# [24] = second compound 1 µM, first compound 10 µM
# [25] = second compound 3.16 µM, first compound 0.0316 µM
# [26] = second compound 3.16 µM, first compound 0.1 µM
# [27] = second compound 3.16 µM, first compound 0.316 µM
# [28] = second compound 3.16 µM, first compound 1 µM
# [29] = second compound 3.16 µM, first compound 3.16 µM
# [30] = second compound 3.16 µM, first compound 10 µM
# [31] = second compound 10 µM, first compound 0.0316 µM
# [32] = second compound 10 µM, first compound 0.1 µM
# [33] = second compound 10 µM, first compound 0.316 µM
# [34] = second compound 10 µM, first compound 1 µM
# [35] = second compound 10 µM, first compound 3.16 µM
# [36] = second compound 10 µM, first compound 10 µM
# 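Note: spheroids exposed to compounds for 7 days before readout.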
# 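Throughout, for viability, T/C: 100% = DMSO vehicle control viability.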
smiles,measurement,setting,value
C#Cc1c(F)ccc2cc(O)cc(-c3ncc4c(N5CC6CCC(C5)N6)nc(OCC56CCCN5CC(F)C6)nc4c3F)c12 (stereo not drawn) + Cc1cccc(N(C)C(=O)C2C(O)CCN2c2nc(C)cc(C(F)(F)F)c2C#N)c1,IC50,second compound 0.0316 µM,> 10 µM
same,IC50,second compound 0.1 µM,> 10 µM
same,IC50,second compound 0.316 µM,> 10 µM
same,IC50,second compound 1 µM,> 10 µM
same,IC50,second compound 3.16 µM,> 10 µM
same,IC50,second compound 10 µM,> 10 µM
same,"viability, T/C",[1],110%
same,"viability, T/C",[2],95.5%
same,"viability, T/C",[3],104%
same,"viability, T/C",[4],104%
same,"viability, T/C",[5],92.9%
same,"viability, T/C",[6],100%
same,"viability, T/C",[7],97.8%
same,"viability, T/C",[8],104%
same,"viability, T/C",[9],109%
same,"viability, T/C",[10],76.1%
same,"viability, T/C",[11],106%
same,"viability, T/C",[12],92.2%
same,"viability, T/C",[13],101%
same,"viability, T/C",[14],106%
same,"viability, T/C",[15],89.8%
same,"viability, T/C",[16],93.5%
same,"viability, T/C",[17],97.7%
same,"viability, T/C",[18],95.8%
same,"viability, T/C",[19],93.8%
same,"viability, T/C",[20],95%
same,"viability, T/C",[21],103%
same,"viability, T/C",[22],95.6%
same,"viability, T/C",[23],99.9%
same,"viability, T/C",[24],98.2%
same,"viability, T/C",[25],95%
same,"viability, T/C",[26],117%
same,"viability, T/C",[27],121%
same,"viability, T/C",[28],93.2%
same,"viability, T/C",[29],98.7%
same,"viability, T/C",[30],105%
same,"viability, T/C",[31],94.8%
same,"viability, T/C",[32],102%
same,"viability, T/C",[33],106%
same,"viability, T/C",[34],90.1%
same,"viability, T/C",[35],106%
same,"viability, T/C",[36],79.7%
C=CC(=O)N1CCN(c2nc(=O)n(-c3c(C)ccnc3C(C)C)c3nc(-c4c(O)cccc4F)c(F)cc23)C(C)C1 (stereo not drawn) + Cc1cccc(N(C)C(=O)C2C(O)CCN2c2nc(C)cc(C(F)(F)F)c2C#N)c1,IC50,second compound 0.0316 µM,> 10 µM
same,IC50,second compound 0.1 µM,> 10 µM
same,IC50,second compound 0.316 µM,> 10 µM
same,IC50,second compound 1 µM,> 10 µM
same,IC50,second compound 3.16 µM,> 10 µM
same,IC50,second compound 10 µM,> 10 µM
same,"viability, T/C",[1],104%
same,"viability, T/C",[2],109%
same,"viability, T/C",[3],93.5%
same,"viability, T/C",[4],103%
same,"viability, T/C",[5],114%
same,"viability, T/C",[6],115%
same,"viability, T/C",[7],114%
same,"viability, T/C",[8],112%
same,"viability, T/C",[9],102%
same,"viability, T/C",[10],90.5%
same,"viability, T/C",[11],116%
same,"viability, T/C",[12],107%
same,"viability, T/C",[13],97.6%
same,"viability, T/C",[14],107%
same,"viability, T/C",[15],102%
same,"viability, T/C",[16],90.3%
same,"viability, T/C",[17],120%
same,"viability, T/C",[18],104%
same,"viability, T/C",[19],88%
same,"viability, T/C",[20],117%
same,"viability, T/C",[21],107%
same,"viability, T/C",[22],81.7%
same,"viability, T/C",[23],115%
same,"viability, T/C",[24],124%
same,"viability, T/C",[25],98.7%
same,"viability, T/C",[26],118%
same,"viability, T/C",[27],95.7%
same,"viability, T/C",[28],91.7%
same,"viability, T/C",[29],123%
same,"viability, T/C",[30],107%
same,"viability, T/C",[31],101%
same,"viability, T/C",[32],107%
same,"viability, T/C",[33],108%
same,"viability, T/C",[34],116%
same,"viability, T/C",[35],116%
same,"viability, T/C",[36],103%
CC1COCCN1c1cc(-c2ccnn2C)c2ccnc(-c3ccn[nH]3)c2n1 (stereo not drawn) + Cc1cccc(N(C)C(=O)C2C(O)CCN2c2nc(C)cc(C(F)(F)F)c2C#N)c1,IC50,second compound 0.0316 µM,0.948 µM
same,IC50,second compound 0.1 µM,1 µM
same,IC50,second compound 0.316 µM,0.77 µM
same,IC50,second compound 1 µM,0.99 µM
same,IC50,second compound 3.16 µM,1.43 µM
same,IC50,second compound 10 µM,0.851 µM
same,"viability, T/C",[1],99.7%
same,"viability, T/C",[2],96.8%
same,"viability, T/C",[3],81.5%
same,"viability, T/C",[4],47.6%
same,"viability, T/C",[5],36.2%
same,"viability, T/C",[6],29.4%
same,"viability, T/C",[7],125%
same,"viability, T/C",[8],97.6%
same,"viability, T/C",[9],81.8%
same,"viability, T/C",[10],45.2%
same,"viability, T/C",[11],35.7%
same,"viability, T/C",[12],33.5%
same,"viability, T/C",[13],94.4%
same,"viability, T/C",[14],110%
same,"viability, T/C",[15],75.4%
same,"viability, T/C",[16],44.3%
same,"viability, T/C",[17],35.1%
same,"viability, T/C",[18],28.8%
same,"viability, T/C",[19],90.3%
same,"viability, T/C",[20],99.3%
same,"viability, T/C",[21],64.3%
same,"viability, T/C",[22],53.3%
same,"viability, T/C",[23],39.3%
same,"viability, T/C",[24],30.7%
same,"viability, T/C",[25],88.8%
same,"viability, T/C",[26],114%
same,"viability, T/C",[27],89%
same,"viability, T/C",[28],58.2%
same,"viability, T/C",[29],32.9%
same,"viability, T/C",[30],31.6%
same,"viability, T/C",[31],103%
same,"viability, T/C",[32],104%
same,"viability, T/C",[33],78.3%
same,"viability, T/C",[34],46%
same,"viability, T/C",[35],34.9%
same,"viability, T/C",[36],32.1%
CC1COCCN1c1cc(C2(S(C)(=N)=O)CC2)nc(-c2ccnc3[nH]ccc23)n1 (stereo not drawn) + Cc1cccc(N(C)C(=O)C2C(O)CCN2c2nc(C)cc(C(F)(F)F)c2C#N)c1,IC50,second compound 0.0316 µM,> 10 µM
same,IC50,second compound 0.1 µM,> 10 µM
same,IC50,second compound 0.316 µM,> 10 µM
same,IC50,second compound 1 µM,> 10 µM
same,IC50,second compound 3.16 µM,> 10 µM
same,IC50,second compound 10 µM,> 10 µM
same,"viability, T/C",[1],96.9%
same,"viability, T/C",[2],107%
same,"viability, T/C",[3],122%
same,"viability, T/C",[4],104%
same,"viability, T/C",[5],111%
same,"viability, T/C",[6],90.9%
same,"viability, T/C",[7],101%
same,"viability, T/C",[8],103%
same,"viability, T/C",[9],95%
same,"viability, T/C",[10],96.2%
same,"viability, T/C",[11],117%
same,"viability, T/C",[12],106%
same,"viability, T/C",[13],95.7%
same,"viability, T/C",[14],108%
same,"viability, T/C",[15],73.7%
same,"viability, T/C",[16],112%
same,"viability, T/C",[17],84%
same,"viability, T/C",[18],70%
same,"viability, T/C",[19],98.7%
same,"viability, T/C",[20],102%
same,"viability, T/C",[21],94.3%
same,"viability, T/C",[22],75.4%
same,"viability, T/C",[23],96.7%
same,"viability, T/C",[24],92.5%
same,"viability, T/C",[25],88.1%
same,"viability, T/C",[26],95.2%
same,"viability, T/C",[27],99.2%
same,"viability, T/C",[28],106%
same,"viability, T/C",[29],101%
same,"viability, T/C",[30],101%
same,"viability, T/C",[31],93.2%
same,"viability, T/C",[32],97%
same,"viability, T/C",[33],98.8%
same,"viability, T/C",[34],98.5%
same,"viability, T/C",[35],98.8%
same,"viability, T/C",[36],77%
